pIC50: −log10 of the molar value. In brackets after ≈: the same amount, converted by molar mass.
Legend:
[1] = Oral bioavailability in rat; assay type: ADME, organism-based; conditions: in vivo
[2] = Partition coefficient (logD); assay type: physicochemical; conditions: octanol/water
Bos taurus = species: Bos taurus; experiment: Effective activity in protecting bovine nasal cartilage explants against degradation induced by interleukin 1-alpha in efficacy experiments in vitro; assay type: functional
[3] = target: Matrix metalloproteinase-9 (Homo sapiens, UniProt P14780); experiment: Inhibition of human gelatinase B, MMP9
[4] = Solubility was determined; assay type: physicochemical
Collagenase = experiment: Inhibition of human collagenase (MMP1); assay type: protein assay
Stromelysin-1 = Stromelysin-1 (Homo sapiens, UniProt P08254); experiment: Inhibition of human stromelysin-1, MMP-3
Stromelysin-1, sequence (P08254 whole entry): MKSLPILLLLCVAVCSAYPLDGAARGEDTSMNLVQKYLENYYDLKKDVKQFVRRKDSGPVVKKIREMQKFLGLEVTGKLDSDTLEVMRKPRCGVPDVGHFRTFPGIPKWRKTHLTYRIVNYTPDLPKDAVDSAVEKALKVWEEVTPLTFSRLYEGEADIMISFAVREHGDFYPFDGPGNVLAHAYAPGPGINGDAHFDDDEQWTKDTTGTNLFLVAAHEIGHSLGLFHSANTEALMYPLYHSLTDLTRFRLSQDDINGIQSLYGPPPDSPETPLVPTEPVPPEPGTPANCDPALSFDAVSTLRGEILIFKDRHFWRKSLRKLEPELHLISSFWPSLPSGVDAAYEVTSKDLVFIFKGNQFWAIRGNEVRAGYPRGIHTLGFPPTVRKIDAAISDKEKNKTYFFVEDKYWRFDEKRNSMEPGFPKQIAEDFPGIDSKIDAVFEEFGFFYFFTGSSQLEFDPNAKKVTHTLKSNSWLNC

Matrix metalloproteinase-9, sequence (P14780 whole entry): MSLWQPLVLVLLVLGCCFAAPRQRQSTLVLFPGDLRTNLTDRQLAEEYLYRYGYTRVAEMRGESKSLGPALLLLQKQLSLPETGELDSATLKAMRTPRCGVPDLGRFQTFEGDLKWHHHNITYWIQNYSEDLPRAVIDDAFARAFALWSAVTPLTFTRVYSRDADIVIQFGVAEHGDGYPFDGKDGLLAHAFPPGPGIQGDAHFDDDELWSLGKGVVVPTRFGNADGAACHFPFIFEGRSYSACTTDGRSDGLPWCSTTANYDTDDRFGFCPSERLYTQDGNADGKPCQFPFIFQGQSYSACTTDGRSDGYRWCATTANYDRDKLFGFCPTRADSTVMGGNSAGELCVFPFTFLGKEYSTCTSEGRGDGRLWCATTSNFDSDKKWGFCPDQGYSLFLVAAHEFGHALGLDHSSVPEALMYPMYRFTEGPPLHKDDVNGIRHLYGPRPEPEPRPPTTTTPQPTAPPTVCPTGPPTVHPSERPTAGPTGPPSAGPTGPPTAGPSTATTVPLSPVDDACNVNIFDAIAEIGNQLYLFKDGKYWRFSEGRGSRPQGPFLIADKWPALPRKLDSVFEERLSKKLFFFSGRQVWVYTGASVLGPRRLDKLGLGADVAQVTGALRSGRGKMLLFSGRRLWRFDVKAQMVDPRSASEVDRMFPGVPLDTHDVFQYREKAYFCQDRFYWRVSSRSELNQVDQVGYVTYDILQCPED

Row | Compound | bioavailability [1] [%] | logD [2] | pIC50 (Bos taurus) | pIC50 [3] | solubility [4] [mg/mL] | IC50 (Collagenase) [nM] | pIC50 (Stromelysin-1)
1 | CN1C(=O)N(C[C@@H](C(=O)NO)[C@@H](CC2CCCC2)C(=O)N2CCCCC2)C(=O)C1(C)C | 25 | 0.6 | > 7.00 | 7.23 | 73 (≈ 167 mM) |  | 
2 | CNC(=O)[C@H](NC(=O)C(CC(C)C)C(CN1C(=O)N(C)C(C)(C)C1=O)C(=O)NO)C(C)(C)C (single isomer, unassigned) | 1.5 |  |  | 8.55 |  | 1 | 
3 | CC(C)C[C@@H](C(=O)N1CCCCC1)[C@@H](CN1C(=O)N(C)C(C)(C)C1=O)C(=O)NO | 30 | 0.6 | > 7.00 | 6.63 | > 100 | 10.1 | 5.66
4 | CNC(=O)[C@H](NC(=O)[C@@H](CC(=O)NO)CC(C)C)C(C)(C)C | 3 |  |  | 7.98 | 0.8 (≈ 2.54 mM) | 4.9 | 6.80
5 | CNC(=O)[C@H](NC(=O)[C@H](CC(C)C)[C@@H](C)C(=O)NO)C(C)(C)C | 2.7 |  |  | 8.62 |  | 2.6 | 7.33
6 | CNC(=O)[C@H](NC(=O)[C@H](CC(C)C)[C@@H](CN1C(=O)c2ccccc2C1=O)C(=O)NO)C(C)(C)C | 1 |  |  | 8.37 |  |  | 8.04

From ChEMBL document CHEMBL1130523, “Design and synthesis of the cartilage protective agent (CPA, Ro32-3555)” (Bioorg Med Chem Lett, 1997)
